Measured values taken from PubChem BioAssay AID256 (DTP/NCI, 2004).
Where “and” joins values, the source holds several entries; their conditions need not be identical. Equal values may be shown once. Toxic doses and inconclusive results are not listed. Rule for the calls: active = survival T/C of 150% or more; inactive = T/C below 125% in these data.

Tested on: CD2F1 mice, L1210 leukemia ip, survival T/C
Test: NCI In Vivo Anticancer Drug Screen. Data for tumor model L1210 Leukemia (intraperitoneal) in CD2F1 (CDF1) mice
Details: endpoint: mean survival time, higher = longer survival
Procedure, shortened: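 Mice carrying a transplanted tumor received test compound or vehicle alone. The value is the measurement in the treated group divided by that in the vehicle-treated control group.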

[1] = dose: 12.5 mg/kg/injection, schedule: Q01DX009 (ip), vehicle: other
[2] = dose: 25.0 mg/kg/injection, schedule: Q01DX009 (ip), vehicle: other
[3] = dose: 50.0 mg/kg/injection, schedule: Q01DX009 (ip), vehicle: other
[4] = dose: 100.0 mg/kg/injection, schedule: Q01DX009 (ip), vehicle: other
[5] = dose: 200.0 mg/kg/injection, schedule: Q01DX009 (ip), vehicle: other
[6] = dose: 25.0 mg/kg/injection, schedule: Q04DX003 (ip), vehicle: saline with Tween-80
[7] = dose: 50.0 mg/kg/injection, schedule: Q04DX003 (ip), vehicle: saline with Tween-80
[8] = dose: 100.0 mg/kg/injection, schedule: Q01DX009 (ip), vehicle: saline with Tween-80
[9] = dose: 100.0 mg/kg/injection, schedule: Q04DX003 (ip), vehicle: saline with Tween-80
[10] = dose: 200.0 mg/kg/injection, schedule: Q04DX003 (ip), vehicle: saline with Tween-80
[11] = dose: 100.0 mg/kg/injection, schedule: Q01DX001 (ip), vehicle: saline with Tween-80
[12] = dose: 50.0 mg/kg/injection, schedule: Q01DX009 (ip), vehicle: saline
[13] = dose: 50.0 mg/kg/injection, schedule: Q01DX009 (ip), vehicle: Klucel (hydroxypropylcellulose) (HPC)
[14] = dose: 100.0 mg/kg/injection, schedule: Q01DX009 (ip), vehicle: Klucel (hydroxypropylcellulose) (HPC)
[15] = dose: 200.0 mg/kg/injection, schedule: Q01DX009 (ip), vehicle: Klucel (hydroxypropylcellulose) (HPC)
[16] = dose: 400.0 mg/kg/injection, schedule: Q04DX003 (ip), vehicle: saline with Tween-80
[17] = dose: 200.0 mg/kg/injection, schedule: Q01DX001 (ip), vehicle: saline with Tween-80
[18] = dose: 400.0 mg/kg/injection, schedule: Q01DX001 (ip), vehicle: saline with Tween-80
[19] = dose: 100.0 mg/kg/injection, schedule: Q04DX003 (ip), vehicle: saline
[20] = dose: 200.0 mg/kg/injection, schedule: Q04DX003 (ip), vehicle: saline
[21] = dose: 400.0 mg/kg/injection, schedule: Q04DX003 (ip), vehicle: saline
[22] = dose: 50.0 mg/kg/injection, schedule: Q04DX003 (ip), vehicle: saline
[23] = dose: 25.0 mg/kg/injection, schedule: Q01DX009 (ip), vehicle: saline

Measured: T/C

O=C(c1ccc(-c2ccccc2)cc1)C1C(c2ccccc2)N1C1CCCCC1 (configuration not stated)
inactive: [1] 102 % of control and 96 % of control | dose: 25.0 mg/kg/injection, schedule: Q01DX001 (ip), vehicle: water 96 % of control and 98 % of control | [2] 96 % of control and 97 % of control | dose: 50.0 mg/kg/injection, schedule: Q01DX001 (ip), vehicle: water 88 % of control and 90 % of control | [3] 102 % of control and 88 % of control | dose: 100.0 mg/kg/injection, schedule: Q01DX001 (ip), vehicle: water 95 % of control and 101 % of control | [4] 86 % of control and 97 % of control | dose: 200.0 mg/kg/injection, schedule: Q01DX001 (ip), vehicle: water 90 % of control and 92 % of control | [5] 94 % of control | dose: 400.0 mg/kg/injection, schedule: Q01DX001 (ip), vehicle: water 92 % of control

CCOC(=O)c1cnc(=O)[nH]c1N
inactive: dose: 25.0 mg/kg/injection, schedule: Q01DX009 (ip), vehicle: saline with Tween-80 101 % of control | [6] 104 % of control | dose: 50.0 mg/kg/injection, schedule: Q01DX009 (ip), vehicle: saline with Tween-80 104 % of control | [7] 98 % of control | [8] 96 % of control | [9] 89 % of control and 100 % of control | [10] 98 % of control

O=C1OC(C(Cl)(Cl)Cl)OC1C(Cl)(Cl)Cl (configuration not stated)
inactive: [11] 97 % of control

C1CC[N-]CC1.C1CC[N-]CC1.C1CC[N-]CC1.C1CC[N-]CC1.[Cl][Rh][Cl]
inactive: dose: 6.25 mg/kg/injection, schedule: Q04DX003 (ip), vehicle: saline 98 % of control | [12] 90 % of control

N#Cc1cnc(N)[nH]c1=O
inactive: [13] 88 % of control | [14] 88 % of control | [15] 91 % of control

O=C(O)CC1(O)CCCCC1c1ccccc1 (configuration not stated)
inactive: [9] 104 % of control | [10] 105 % of control | [16] 88 % of control

COC(=O)C(=C(C)C)[N+](=O)[O-]
inactive: [9] 91 % of control | [10] 95 % of control | [16] 95 % of control

CC(C)(C)C1=Nc2ccccc2[Si]1(C)C
inactive: [11] 98 % of control | [17] 102 % of control | [18] 95 % of control

CC(N)C(=O)NC1C(CO)OC(n2cnc3c(N)ncnc32)C1O (configuration not stated)
inactive: dose: 100.0 mg/kg/injection, schedule: Q01DX001 (ip), vehicle: saline 100 % of control | dose: 200.0 mg/kg/injection, schedule: Q01DX001 (ip), vehicle: saline 97 % of control | dose: 400.0 mg/kg/injection, schedule: Q01DX001 (ip), vehicle: saline 100 % of control

NC(CO)CO
inactive: [19] 98 % of control | [20] 95 % of control | [21] 98 % of control

CN(C)c1ccc(NC(=S)Nc2ccc(N(C)C)cc2)cc1
inactive: dose: 25.0 mg/kg/injection, schedule: Q01DX001 (ip), vehicle: saline with Tween-80 97 % of control | dose: 50.0 mg/kg/injection, schedule: Q01DX001 (ip), vehicle: saline with Tween-80 102 % of control | [11] 94 % of control

NC(=O)c1ccn(C2OC(CO)C(O)C2O)n1 (configuration not stated)
inactive: dose: 200.0 mg/kg/injection, schedule: Q01DX005 (ip), vehicle: other 106 % of control | dose: 400.0 mg/kg/injection, schedule: Q01DX005 (ip), vehicle: other 107 % of control | dose: 800.0 mg/kg/injection, schedule: Q01DX005 (ip), vehicle: other 117 % of control

OCC1OC(O)C(F)C(O)C1O (configuration not stated)
inactive: [22] 108 % of control | [19] 104 % of control | [20] 101 % of control | [21] 101 % of control

OC(c1ccccc1)(c1ccccc1)c1ccc(CN2CCCCC2)cc1
inactive: [1] 94 % of control | [2] 92 % of control | [3] 86 % of control | [4] 86 % of control | [5] 87 % of control

FC(F)(F)c1cccc(C(OCCN2CCCC2)c2ccccc2)c1 (configuration not stated)
inactive: dose: 6.25 mg/kg/injection, schedule: Q01DX009 (ip), vehicle: saline 105 % of control | dose: 12.5 mg/kg/injection, schedule: Q01DX009 (ip), vehicle: saline 105 % of control | [23] 109 % of control

CCOC(=O)c1cc(C)nc2c(Cl)cc(Cl)cc12
inactive: [8] 87 % of control | [9] 87 % of control | dose: 200.0 mg/kg/injection, schedule: Q01DX009 (ip), vehicle: saline with Tween-80 87 % of control | [10] 88 % of control | [16] 86 % of control

CC(C(=O)O)N(C)N=O (configuration not stated)
inactive: [13] 104 % of control | [14] 93 % of control | [15] 86 % of control

Nc1ncnc(N)c1NC(=O)c1ccc(-c2ccccc2)cc1
inactive: [6] 92 % of control | [7] 94 % of control | [9] 103 % of control

NC(N)=N/N=C(\c1ccc(C(F)(F)F)cc1)c1ccc(Cl)c(Cl)c1
inactive: dose: 75.0 mg/kg/injection, schedule: Q01DX001 (ip), vehicle: saline 91 % of control

CCC(CCC(C)C1CCC2C3CC=C4CC(OC(=O)CCC(=O)O)CCC4(C)C3CCC12C)C(C)C (configuration not stated)
inactive: [9] 90 % of control | [10] 90 % of control | [16] 93 % of control

CCOC(=O)Nc1cc(NC(C)CCCN(CC)CC)c2ncc(-c3ccccc3)nc2n1 (configuration not stated) (tested in a mixture with another compound)
inactive: [23] 89 % of control | dose: 25.0 mg/kg/injection, schedule: Q04DX003 (ip), vehicle: saline 98 % of control | [12] 94 % of control | [22] 98 % of control | dose: 100.0 mg/kg/injection, schedule: Q01DX009 (ip), vehicle: saline 95 % of control | [19] 108 % of control

CCOC(=O)C(CCC#N)(CCC#N)C(=O)O
inactive: dose: 100.0 mg/kg/injection, schedule: Q04DX002 (ip), vehicle: saline 98 % of control | dose: 200.0 mg/kg/injection, schedule: Q04DX002 (ip), vehicle: saline 111 % of control | dose: 400.0 mg/kg/injection, schedule: Q04DX002 (ip), vehicle: saline 117 % of control

N#C/C(=C/c1ccc(Cl)cc1)C(N)=O
inactive: dose: 12.5 mg/kg/injection, schedule: Q04DX003 (ip), vehicle: Klucel (hydroxypropylcellulose) (HPC) 96 % of control and 98 % of control | dose: 25.0 mg/kg/injection, schedule: Q04DX003 (ip), vehicle: Klucel (hydroxypropylcellulose) (HPC) 93 % of control and 95 % of control | dose: 50.0 mg/kg/injection, schedule: Q04DX003 (ip), vehicle: Klucel (hydroxypropylcellulose) (HPC) 100 % of control and 104 % of control | [11] 121 % of control | dose: 100.0 mg/kg/injection, schedule: Q04DX003 (ip), vehicle: Klucel (hydroxypropylcellulose) (HPC) 100 % of control and 101 % of control | [17] 111 % of control | [18] 101 % of control
